pKi: −log10 of the molar value.
Target: T1, histamine 3 receptor (H3R) (Homo sapiens, UniProt Q9Y5N1)
T1 construct: expressed in transfected cells; host or cells: CHO cells (HR3-CHO cell line), membrane preparation
Assay: Binding Assay with 3H-(R)α-Methylhistamine (competition binding, membrane of the human HR3-CHO cell line)
Conditions: competition binding vs 3H(R)α-Methylhistamine (1 nM = Kd), 1 hour room temperature, Ki calculated from IC50 by Cheng-Prusoff
Experimental: Binding Assay with ^3H—(R)α-Methylhistamine
Saturation binding experiments were performed using HR3-CHO membranes prepared as described in Takahashi, K, Tokita, S., Kotani, H. (2003) J. Pharmacol. Exp. Therapeutics 307, 213-218.
An appropriate amount of membrane (60 to 80 μg protein/well) was incubated with increasing concentrations of ^3H(R)α-Methylhistamine di-hydrochloride (0.10 to 10 nM). Non specific binding was determined using a 200 fold excess of cold (R)α-Methylhistamine dihydrobromide (500 nM final concentration). The incubation was carried out at room temperature (in deep-well plates shaking for three hours). The final volume in each well was 250 μl. The incubation was followed by rapid filtration on GF/B filters (pre-soaked with 100 μl of 0.5% PEI in Tris 50 mM shaking at 200 rpm for two hours). The filtration was made using a cell-harvester and the filter plates were then washed five times with ice cold washing buffer containing 0.5 M NaCl. After harvesting, the plates were dried at 55° C. for 60 min, then we added scintillation fluid (Microscint 40, 40 microl in each well) and the amount of radioactivity on the filter was determined in Packard top-counter after shaking the plates for two hours at 200 rpm at room temperature.
Binding Buffer: 50 mM Tris-HCl pH 7.4 and 5 mM MgCl2×6H2O pH 7.4. Washing Buffer: 50 mM Tris-HCl pH 7.4 and 5 mM MgCl2×6H2O and 0.5 M NaCl pH 7.4.
Indirect measurement of affinity of H3R inverse agonists: twelve increasing concentrations (ranging from 10 μM to 0.3 nM) of the selected compounds were always tested in competition binding experiments using membrane of the human HR3-CHO cell line. An appropriate amount of protein, e.g. approximately 500 cpm binding of RAMH at Kd, were incubated for 1 hour at room temperature in 250 μl final volume in 96-well plates in presence of ^3H(R)α-Methylhistamine (1 nM final concentration=Kd). […]
All compounds were tested at a single concentration in duplicates. […] Ki's were calculated from IC50 based on Cheng-Prusoff equation (Cheng, Y, Prusoff, W H (1973) Biochem Pharmacol 22, 3099-3108).

T1 sequence (Q9Y5N1 whole entry): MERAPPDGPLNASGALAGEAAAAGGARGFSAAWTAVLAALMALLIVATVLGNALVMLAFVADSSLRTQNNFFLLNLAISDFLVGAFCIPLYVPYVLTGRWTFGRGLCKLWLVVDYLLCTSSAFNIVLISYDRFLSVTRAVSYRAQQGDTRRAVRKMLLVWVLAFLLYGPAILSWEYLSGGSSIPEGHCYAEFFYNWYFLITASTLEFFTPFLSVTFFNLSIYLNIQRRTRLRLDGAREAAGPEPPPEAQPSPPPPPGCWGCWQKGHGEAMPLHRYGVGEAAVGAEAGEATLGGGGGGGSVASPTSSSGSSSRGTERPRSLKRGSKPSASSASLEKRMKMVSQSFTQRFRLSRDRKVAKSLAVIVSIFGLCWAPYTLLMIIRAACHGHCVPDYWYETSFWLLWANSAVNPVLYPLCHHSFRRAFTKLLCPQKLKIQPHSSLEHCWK

## O=C(Nc1cc(N2CCN(C3CCCC3)CC2)ccn1)c1cccc(F)c1 [Example 48, N-[4-(4-cyclopentyl-piperazin-1-yl)-pyridin-2-yl]-3-fluoro-benzamide]
  pKi: 7.12

## O=C(Nc1ccnc(N2CCN(C3CCCC3)CC2)c1)C1CCCCC1 [Example 11, cyclohexanecarboxylic acid [2-(4-cyclopentyl-piperazin-1-yl)-pyridin-4-yl]-amide]
  pKi: 8.07

## O=C(Nc1ccnc(N2CCN(C3CCCC3)CC2)c1)N1CCC(F)CC1 [Example 66, 4-fluoro-piperidine-1-carboxylic acid [2-(4-cyclopentyl-piperazin-1-yl)-pyridin-4-yl]-amide]
  pKi: 7.31

Source: US7612076B2, “Piperazinyl-pyridine derivatives” (Hoffman-La Roche Inc., priority 2004, dated 2009)
